According to paper PMC2922868 (ACS medicinal chemistry letters, 2010):
“Also recorded” adds a separate entry of the source. Read-outs that look alike come from different tables or passages of the source.

What was measured:
[1] = tested on: N-terminal domain of Hsc82 (yeast variant of Hsp90); assay: pull-down with San A-amide-Biotin, Hsc82 N-terminal domain; assay type: binding; conditions: San A-amide-Biotin as probe, His-fusion, Figure 5 lane 2
[2] = tested on: IP6K2 over expressed (K2-O/E) HEK 293 cells; assay: cell survival, IP6K2 over expressed vs wild-type HEK 293 cells; assay type: cell-based; conditions: 48 hours, CCK-8
[3] = tested on: N-middle domain of Hsc82 (yeast variant of Hsp90); assay: pull-down with San A-amide-Biotin, Hsc82 N-middle construct; assay type: binding; conditions: San A-amide-Biotin as probe, His-fusion, Figure 5 lane 5
[4] = tested on: Hsp90-IP6K2 interaction; assay: in vitro pull down binding assay, Hsp90-IP6K2
[5] = tested on: full length Hsc82 (yeast variant of Hsp90); assay: pull-down with San A-amide-Biotin, Hsc82 full length; assay type: binding; conditions: San A-amide-Biotin as probe, His-fusion, Figure 5 lane 6
[6] = tested on: Hsp90; assay: Hsp90 ATPase activity / ATP hydrolysis; assay type: biochemical; conditions: Supplementary data, Figure S7
[7] = tested on: C-terminal domain of Hsc82 (yeast variant of Hsp90); assay: pull-down with San A-amide-Biotin, Hsc82 C-terminal domain; assay type: binding; conditions: San A-amide-Biotin as probe, His-fusion, Figure 5 lane 4
[8] = ref [6], [8]; cited from earlier work
[9] = tested on: middle domain of Hsc82 (yeast variant of Hsp90); assay type: binding; conditions: pull-down, San A-amide-Biotin as probe; His-fusion; Figure 5 lane 3
[10] = tested on: Hsp90-IP6K2 interaction; conditions: ref [17], cited from earlier work
[11] = tested on: Hsp90-IP6K2 pathway; conditions: ref [17]; cited from earlier work
[12] = tested on: Hsp90-FKBP52 interaction; conditions: not tested in this paper; reference not given; cited from earlier work

| Compound | binding to N-terminal domain [1] | fold change in survival difference, with drug vs no drug (3% vs 27% change) ([2]; 25 μM San A-amide, K2-O/E vs wild type HEK 293) | change in cell survival, K2-O/E compared to wild type (control) ([2]; 25 μM San A-amide, change without drug 3%) [%] | cell survival in K2-O/E compared to wild type (in words) ([2]; 25 μM) | induction of cell death through the Hsp90-IP6K2 pathway (in words) ([2]; 25 μM, HEK 293) | binding to N-middle construct [3] | effectiveness relative to novobiocin, IP6K2 binding (in words) ([4]; EC50 ~1 μM vs ~100 μM for novobiocin (ref [17])) | inhibition of IP6K2 binding to Hsp90 (in words) ([4]; native Hsp90 from HeLa cells, His-IP6K2, 0-10 μM) | fold potency over Novobiocin at inhibiting C-terminal client proteins ([4]; versus Novobiocin) | binding to full length Hsc82 [5] | effect on ATP hydrolysis by Hsp90 [6] | binding to C-terminal domain [7] | apoptosis (in words) [8] | binding to middle domain [9] | IP6K2 binding inhibition at 10 μM (in words) ([10]; 10 μM) | effect on IP6K2 binding to Hsp90 (in words) [10] | effect on IP6K2 binding to Hsp90 (in words) ([10]; listed as 17AAG) | effect on Hsp90-IP6K2 pathway (in words) [11] | EC50 ([10]; read-out: EC50, inhibition of IP6K2 binding to Hsp90) [µM] | effect on Hsp90-FKBP binding (in words) [12] |
| --- | --- | --- | --- | --- | --- | --- | --- | --- | --- | --- | --- | --- | --- | --- | --- | --- | --- | --- | --- | --- |
| Sansalvamide A-amide [San A-amide] | only a marginally detectable interaction | ~ 9 fold | 27 | cell survival is substantially decreased in cells that over-express IP6K2 compared to wild type cells | induces cell death, at least in part, through the Hsp90-IP6K2 pathway | optimal affinity; also recorded: specifically binds to the N-middle domain of Hsp90 | significantly more effective binding inhibitor | able to block both Hsp90-IP6K2 and Hsp90-FKBP interactions; also recorded: blocks the binding of Hsp90 to a client protein; also recorded: inhibits the binding of the C-terminal interacting protein, IP6K2, to Hsp90 | over 100 fold | bound to full length Hsp90 | no affect on ATP hydrolysis | no affinity | shown to cause apoptosis | partial affinity | – | – | – | – | – | – |
| C=CCNC1=C2C[C@@H](C)C[C@H](OC)[C@H](O)[C@@H](C)/C=C(\C)[C@H](OC(N)=O)[C@@H](OC)/C=C\C=C(/C)C(=O)NC(=CC1=O)C2=O [17-AAG, 17-allylamino, 17-demethoxygeldanamycin] | – | – | – | – | – | – | – | – | – | – | – | – | – | – | not inhibited | did not affect the binding of IP6K2 | FKBP and IP6K2 binding to Hsp90 are not affected | did not affect this pathway | – | – |
| CO[C@@H]1[C@@H](OC(N)=O)[C@@H](O)[C@H](Oc2ccc3c(O)c(NC(=O)c4ccc(O)c(CC=C(C)C)c4)c(=O)oc3c2C)OC1(C)C [novobiocin] | – | – | – | – | – | – | – | – | – | – | – | – | – | – | – | only disrupts Hsp90-IP6K2 | – | – | ~100 | not FKBP binding |
